Test results taken from US10787452B2 (Vertex Pharmaceuticals Incorporated, priority 2012, dated 2020).

These compounds were tested on HCT116 colorectal cancer cells (assay: Cisplatin sensitization assay (96 h cell viability MTS)). Conditions: 96 h MTS, compound plus Cisplatin.
Assay type: cell-based
How it was run: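 Test compound and cisplatin were added together as a full matrix of 2-fold serial dilutions, each from a top final concentration of 10 μM. Cells were incubated 96 h at 37° C in 5% CO2, then viability was read by MTS after a further 1 h incubation.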
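Note: compound concentration needed to lower the Cisplatin-alone IC50 by a set fold.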

| SMILES | Cisplatin Sensitization Assay |
| --- | --- |
| Nc1nn2cc(F)cnc2c1C(=O)Nc1cnccc1O[C@H]1CCCN(C2COC2)C1 [I-O-9, (S)-2-amino-6-fluoro-N-(4-((1-(oxetan-3-yl)piperidin-3-yl)oxy)pyridin-3-yl)pyrazolo[1,5-a]pyrimidine-3-carboxamide] | ++ (Compounds with a Cisplatin sensitization value >0.02 μM but <0.2 μM are marked with “++.”) |
| Nc1nn2cc(F)cnc2c1C(=O)Nc1cnccc1O[C@@H]1CN2CCC1CC2 [I-O-10, (S)-2-amino-6-fluoro-N-(4-(quinuclidin-3-yloxy)pyridin-3-yl)pyrazolo[1,5-a]pyrimidine-3-carboxamide] | +++ (Compounds with a Cisplatin sensitization value of <0.02 μM are marked with “+++.”) |
| Nc1nn2cc(F)cnc2c1C(=O)Nc1cnccc1OC1CCN(C2COC2)CC1 [I-O-11, 2-amino-6-fluoro-N-(4-((1-(oxetan-3-yl)piperidin-4-yl)oxy)pyridin-3-yl)pyrazolo[1,5-a]pyrimidine-3-carboxamide] | +++ (Compounds with a Cisplatin sensitization value of <0.02 μM are marked with “+++.”) |
| CN1CCC(Oc2ccncc2NC(=O)c2c(N)nn3cc(F)cnc23)CC1 [I-O-12, 2-amino-6-fluoro-N-(4-((1-methylpiperidin-4-yl)oxy)pyridin-3-yl)pyrazolo[1,5-a]pyrimidine-3-carboxamide] | +++ (Compounds with a Cisplatin sensitization value of <0.02 μM are marked with “+++.”) |
| COC(=O)[C@H]1CC[C@H](Oc2ccncc2NC(=O)c2c(N)nn3cc(F)cnc23)CC1 [I-O-13, (1r,4r)-methyl 4-((3-(2-amino-6-fluoropyrazolo[1,5-a]pyrimidine-3-carboxamido)pyridin-4-yl)oxy)cyclohexanecarboxylate] | +++ (Compounds with a Cisplatin sensitization value of <0.02 μM are marked with “+++.”) |
| CCOc1ccncc1NC(=O)c1c(N)nn2cc(F)cnc12 [I-O-14, 2-amino-N-(4-ethoxypyridin-3-yl)-6-fluoropyrazolo[1,5-a]pyrimidine-3-carboxamide] | +++ (Compounds with a Cisplatin sensitization value of <0.02 μM are marked with “+++.”) |
| Nc1nn2cc(F)cnc2c1C(=O)Nc1cnccc1O[C@H]1Cc2nccn2C1 [I-O-16, (S)-2-amino-N-(4-((6,7-dihydro-5H-pyrrolo[1,2-a]imidazol-6-yl)oxy)pyridin-3-yl)-6-fluoropyrazolo[1,5-a]pyrimidine-3-carboxamide] | +++ (Compounds with a Cisplatin sensitization value of <0.02 μM are marked with “+++.”) |
| CN(C)C(=O)[C@H]1CC[C@@H](Oc2ccncc2NC(=O)c2c(N)nn3cc(F)cnc23)CC1 [I-O-17, 2-amino-N-(4-(((1s,4s)-4-(dimethylcarbamoyl)cyclohexyl)oxy)pyridin-3-yl)-6-fluoropyrazolo[1,5-a]pyrimidine-3-carboxamide] | +++ (Compounds with a Cisplatin sensitization value of <0.02 μM are marked with “+++.”) |
| CN1CCN(C(=O)[C@H]2CC[C@@H](Oc3ccncc3NC(=O)c3c(N)nn4cc(F)cnc34)CC2)CC1 [I-O-19] | +++ (Compounds with a Cisplatin sensitization value of <0.02 μM are marked with “+++.”) |
| CCC(C#N)c1cnc2c(C(=O)Nc3cnccc3OC)c(N)nn2c1 (centres unmarked) [I-O-20, 2-amino-6-(1-cyanopropyl)-N-(4-methoxypyridin-3-yl)pyrazolo[1,5-a]pyrimidine-3-carboxamide] | ++ (Compounds with a Cisplatin sensitization value >0.02 μM but <0.2 μM are marked with “++.”) |
| COc1ccncc1NC(=O)c1c(N)nn2cc(C(C)C#N)cnc12 (centres unmarked) [I-O-21, 2-amino-6-(1-cyanoethyl)-N-(4-methoxypyridin-3-yl)pyrazolo[1,5-a]pyrimidine-3-carboxamide] | ++ (Compounds with a Cisplatin sensitization value >0.02 μM but <0.2 μM are marked with “++.”) |
| CN1CCC(Oc2ccncc2NC(=O)c2c(N)nn3cc(CC#N)cnc23)CC1 [I-O-23, 2-amino-6-(cyanomethyl)-N-(4-((1-methylpiperidin-4-yl)oxy)pyridin-3-yl)pyrazolo[1,5-a]pyrimidine-3-carboxamide] | +++ (Compounds with a Cisplatin sensitization value of <0.02 μM are marked with “+++.”) |
| CN(C)CCOc1ccncc1NC(=O)c1c(N)nn2cc(CC#N)cnc12 [I-O-24, 2-amino-6-(cyanomethyl)-N-(4-(2-(dimethylamino)ethoxy)pyridin-3-yl)pyrazolo[1,5-a]pyrimidine-3-carboxamide] | ++ (Compounds with a Cisplatin sensitization value >0.02 μM but <0.2 μM are marked with “++.”) |
| N#CCc1cnc2c(C(=O)Nc3cnccc3Oc3ccccc3)c(N)nn2c1 [I-O-25, 2-amino-6-(cyanomethyl)-N-(4-phenoxypyridin-3-yl)pyrazolo[1,5-a]pyrimidine-3-carboxamide] | +++ (Compounds with a Cisplatin sensitization value of <0.02 μM are marked with “+++.”) |
| COc1ccncc1NC(=O)c1c(N)nn2cc(CC#N)cnc12 [I-O-26, 2-amino-6-(cyanomethyl)-N-(4-methoxypyridin-3-yl)pyrazolo[1,5-a]pyrimidine-3-carboxamide] | ++ (Compounds with a Cisplatin sensitization value >0.02 μM but <0.2 μM are marked with “++.”) |
| COc1cc(Cl)ncc1NC(=O)c1c(N)nn2cc(CC#N)cnc12 [I-O-27, 2-amino-N-(6-chloro-4-methoxypyridin-3-yl)-6-(cyanomethyl)pyrazolo[1,5-a]pyrimidine-3-carboxamide] | ++ (Compounds with a Cisplatin sensitization value >0.02 μM but <0.2 μM are marked with “++.”) |
| CCOc1ccncc1NC(=O)c1c(N)nn2cc(CC#N)cnc12 [I-O-28, 2-amino-6-(cyanomethyl)-N-(4-ethoxypyridin-3-yl)pyrazolo[1,5-a]pyrimidine-3-carboxamide] | +++ (Compounds with a Cisplatin sensitization value of <0.02 μM are marked with “+++.”) |
| COCCOc1ccncc1NC(=O)c1c(N)nn2cc(CC#N)cnc12 [I-O-29, 2-amino-6-(cyanomethyl)-N-(4-(2-methoxyethoxy)pyridin-3-yl)pyrazolo[1,5-a]pyrimidine-3-carboxamide] | +++ (Compounds with a Cisplatin sensitization value of <0.02 μM are marked with “+++.”) |
| N#CCc1cnc2c(C(=O)Nc3cnccc3OC3CCOCC3)c(N)nn2c1 [I-O-30, 2-amino-6-(cyanomethyl)-N-(4-((tetrahydro-2H-pyran-4-yl)oxy)pyridin-3-yl)pyrazolo[1,5-a]pyrimidine-3-carboxamide] | +++ (Compounds with a Cisplatin sensitization value of <0.02 μM are marked with “+++.”) |
| N#CCc1cnc2c(C(=O)Nc3cnccc3OCC3CC3)c(N)nn2c1 [I-O-32, 2-amino-6-(cyanomethyl)-N-(4-(cyclopropylmethoxy)pyridin-3-yl)pyrazolo[1,5-a]pyrimidine-3-carboxamide] | +++ (Compounds with a Cisplatin sensitization value of <0.02 μM are marked with “+++.”) |
| N#CCc1cnc2c(C(=O)Nc3cnccc3OCCO)c(N)nn2c1 [I-O-33, 2-amino-6-(cyanomethyl)-N-(4-(2-hydroxyethoxy)pyridin-3-yl)pyrazolo[1,5-a]pyrimidine-3-carboxamide] | ++ (Compounds with a Cisplatin sensitization value >0.02 μM but <0.2 μM are marked with “++.”) |
| N#CCc1cnc2c(C(=O)Nc3cnccc3OCC(F)(F)F)c(N)nn2c1 [I-O-34, 2-amino-6-(cyanomethyl)-N-(4-(2,2,2-trifluoroethoxy)pyridin-3-yl)pyrazolo[1,5-a]pyrimidine-3-carboxamide] | ++ (Compounds with a Cisplatin sensitization value >0.02 μM but <0.2 μM are marked with “++.”) |
| CC(C)Oc1ccncc1NC(=O)c1c(N)nn2cc(CC#N)cnc12 [I-O-35, 2-amino-6-(cyanomethyl)-N-(4-isopropoxypyridin-3-yl)pyrazolo[1,5-a]pyrimidine-3-carboxamide] | +++ (Compounds with a Cisplatin sensitization value of <0.02 μM are marked with “+++.”) |
| N#CCc1cnc2c(C(=O)Nc3cnccc3OC3CCC3)c(N)nn2c1 [I-O-36, 2-amino-6-(cyanomethyl)-N-(4-cyclobutoxypyridin-3-yl)pyrazolo[1,5-a]pyrimidine-3-carboxamide] | +++ (Compounds with a Cisplatin sensitization value of <0.02 μM are marked with “+++.”) |
| N#CCc1cnc2c(C(=O)Nc3cnccc3OC3COC3)c(N)nn2c1 [I-O-38, 2-amino-6-(cyanomethyl)-N-(4-(oxetan-3-yloxy)pyridin-3-yl)pyrazolo[1,5-a]pyrimidine-3-carboxamide] | +++ (Compounds with a Cisplatin sensitization value of <0.02 μM are marked with “+++.”) |
| N#CCc1cnc2c(C(=O)Nc3cnccc3OC3CCCCC3)c(N)nn2c1 [I-O-39, 2-amino-6-(cyanomethyl)-N-(4-(cyclohexyloxy)pyridin-3-yl)pyrazolo[1,5-a]pyrimidine-3-carboxamide] | +++ (Compounds with a Cisplatin sensitization value of <0.02 μM are marked with “+++.”) |
| N#CCc1cnc2c(C(=O)Nc3cnccc3OCCCO)c(N)nn2c1 [I-O-40, 2-amino-6-(cyanomethyl)-N-(4-(3-hydroxypropoxy)pyridin-3-yl)pyrazolo[1,5-a]pyrimidine-3-carboxamide] | ++ (Compounds with a Cisplatin sensitization value >0.02 μM but <0.2 μM are marked with “++.”) |
| N#CCc1cnc2c(C(=O)Nc3cnccc3OC3CCCOC3)c(N)nn2c1 (centres unmarked) [I-O-41, 2-amino-6-(cyanomethyl)-N-(4-((tetrahydro-2H-pyran-3-yl)oxy)pyridin-3-yl)pyrazolo[1,5-a]pyrimidine-3-carboxamide] | +++ (Compounds with a Cisplatin sensitization value of <0.02 μM are marked with “+++.”) |
| N#CCc1cnc2c(C(=O)Nc3cnccc3O[C@H]3CCOC3)c(N)nn2c1 [I-O-42, (S)-2-amino-6-(cyanomethyl)-N-(4-((tetrahydrofuran-3-yl)oxy)pyridin-3-yl)pyrazolo[1,5-a]pyrimidine-3-carboxamide] | +++ (Compounds with a Cisplatin sensitization value of <0.02 μM are marked with “+++.”) |
